Laboratory results: patent US20230218577A1, “USE OF HEAT SHOCK PROTEIN INHIBITORS FOR THE TREATMENT OF NEURODEVELOPMENTAL DISORDERS” (The Children's Medical Center Corporation, priority 2020, published 2023)

What was measured:
[1] = system: ciliated neurons in CA1 of the hippocampus of Tsc2 mutant mice; experiment: Ciliated neurons in brain of Tsc2 mutant mice (immunohistochemistry, manual cilia counting); type: in vivo, mouse; conditions: rapamycin 3 mg/kg i.p. every other day P7 until P56
From the text: (§1) Neuronal cilia in TSC mouse models was examined with either a conditional deletion of TSC1 or TSC2 driven by the Synapsin-1 promoter, which results in loss of TSC1/2 proteins in post-mitotic neurons of the cortex and of the hippocampus. The TSC1/SynCre mice (Tsc1 mutant) have a shorter life span (median age postnatal day 35, P35), and they recapitulate many of the neurological manifestations of TSC, including seizures and presence of ectopic giant cells (Meikle et al., A mouse model of tuberous sclerosis: neuronal loss of Tsc1 causes dysplastic and ectopic neurons, reduced myelination, seizure activity, and limited survival; J Neurosci 27, 5546-5558 (2007)). […]
For histological analysis, animals were anesthetized (1 ml of 2.5% Avertin) and perfused transcardially with 4% PFA. […] Finally, the average percentage of neurons with cilia (NeuN^+/ACIII^+) was calculated in each of the images. […] The average percentage of SMI311^+ or SMI311^− with cilia was calculated. […] A threshold for cilia count was set such that only ACIII positive objects that measured longer than 1 μm were counted as cilia. All the imaging and the quantification were done in a blinded way. […] All quantifications were performed in a blinded fashion.

[2] = system: ciliated neurons in cortex and dentate gyrus of Tsc1 mutant mice; experiment: Ciliated neurons in brain of Tsc1 mutant mice (immunohistochemistry, manual cilia counting); type: in vivo, mouse; conditions: rapamycin 6 mg/kg i.p. every other day P7 until P21
From the text: as §1
For histological analysis, animals were anesthetized (1 ml of 2.5% Avertin) and perfused transcardially with 4% PFA. […] Finally, the average percentage of neurons with cilia (NeuN^+/ACIII^+) was calculated in each of the images. […] The average percentage of SMI311^+ or SMI311^− with cilia was calculated. […] A threshold for cilia count was set such that only ACIII positive objects that measured longer than 1 μm were counted as cilia. All the imaging and the quantification were done in a blinded way. […]

[3] = system: pS6, IGF-IRβ in ctrl-sh neurons; experiment: Western blot of pS6 and IGF-IRβ in ctrl-sh neurons; type: cell-based, rat; conditions: dose curve

CO[C@H]1C[C@@H]2CC[C@@H](C)[C@@](O)(O2)C(=O)C(=O)N2CCCC[C@H]2C(=O)O[C@H]([C@H](C)C[C@@H]2CC[C@@H](O)[C@H](OC)C2)CC(=O)[C@H](C)/C=C(\C)[C@@H](O)[C@@H](OC)C(=O)[C@H](C)C[C@H](C)/C=C/C=C/C=C/1C [rapamycin]
ciliation defects [1]: prevented
ciliation defects [2]: prevented

C=CCNC1=C2C[C@@H](C)C[C@H](OC)[C@H](O)[C@@H](C)/C=C(\C)[C@H](OC(N)=O)[C@@H](OC)C=C/C=C(\C)C(=O)NC(=CC1=O)C2=O [17-AGG, 3 S,5S,6R,7S,8E,10R,11S,12E,14E)-21-(allylamino)-6-hydroxy-5,11-dimethoxy-3,7,9,15-tetramethyl-16,20,22-trioxo-17-azabicyclo[16.3.1]docosa-8,12,14,18,21-pentaen-10-yl] carbamate]
IGF-IRβ levels [3]: reduced
S6 phosphorylation [3]: reduced
